According to patent US9226501B2, “Pesticidal compositions and processes related thereto” (Dow AgroSciences LLC, priority 2012, dated 2016):

Assays:
[1] = tested on: Beet Armyworm (BAW) (spodoptera exigua); experiment: Bioassay on beet armyworm (BAW), 128-well diet tray assay; format: in vivo; conditions: for pest or weed control at 50 µg/cm2: Spodoptera exigua, 168 h, % mortality, second instar larvae, 50 μg/cm^2 on artificial diet, five to seven days, 25° C., read-out: BAW Rating
Method: (§1) Certain molecules disclosed in this document were tested against BAW, CEW and CL using procedures described in the following examples. In the reporting of the results, the “BAW & CEW & CL Rating Table” was used (See Table Section).
Bioassays on BAW were conducted using a 128-well diet tray assay. One to five second instar BAW larvae were placed in each well (3 mL) of the diet tray that had been previously filled with 1 mL of artificial diet to which 50 μg/cm^2 of the test compound (dissolved in 50 μL of 90:10 acetone-water mixture) had been applied (to each of eight wells) and then allowed to dry. Trays were covered with a clear self-adhesive cover, and held at 25° C., 14:10 light-dark for five to seven days. Percent mortality was recorded for the larvae in each well; activity in the eight wells was then averaged. The results are indicated in the tables entitled “Table 3: Assay Results Part 1” and “Table 4: Assay Results Part 2” (See Table Section).

[2] = tested on: Cabbage Looper (CL) (Trichoplusia ni); experiment: Bioassay on cabbage looper (CL), 128-well diet tray assay; format: in vivo; conditions: for CL Rating: Table 5, prophetic compounds subsequently exemplified, cabbage looper; for pest or weed control at 50 µg/cm2: Trichoplusia ni, 168 h, % mortality, second instar larvae, 50 μg/cm^2 on artificial diet, five to seven days, 25° C., read-out: CL Rating
Method: as §1
Bioassays on CL were conducted using a 128-well diet tray assay. One to five second instar CL larvae were placed in each well (3 mL) of the diet tray that had been previously filled with 1 mL of artificial diet to which 50 μg/cm^2 of the test compound (dissolved in 50 μL of 90:10 acetone-water mixture) had been applied (to each of eight wells) and then allowed to dry. Trays were covered with a clear self-adhesive cover, and held at 25° C., 14:10 light-dark for five to seven days. Percent mortality was recorded for the larvae in each well; activity in the eight wells was then averaged. The results are indicated in the table entitled “Table 4: Assay Results Part 2” (See Table Section).

[3] = Table 5, prophetic compounds subsequently exemplified, beet armyworm

Compound | BAW Rating [1, 3] | CL Rating [2] | also measured
C[C@@H](NC(=O)c1ccc(/C=C/C(c2ccc(Cl)c(Cl)c2)C(F)(F)F)cc1Br)C(=O)NCC(F)(F)F (stereo partly drawn) [P1806] | A (50-100) | A (50-100) | –
CC(C)[C@@H](NC(=O)c1ccc(/C=C/C(c2cc(Cl)c(Cl)c(Cl)c2)C(F)(F)F)cc1C(F)(F)F)C(=O)NCC(F)(F)F (stereo partly drawn) [FA33] | – | – | pest or weed control at 50 µg/cm2 [1]: 50 to 100%; pest or weed control at 50 µg/cm2 [2]: 50 to 100%
CC(C)(NC(=O)c1ccc(/C=C/C(c2cc(Cl)c(Cl)c(Cl)c2)C(F)(F)F)cc1C(F)(F)F)C(=S)NCC(F)(F)F (stereo not drawn) [FA12] | – | – | pest or weed control at 50 µg/cm2 [1]: 50 to 100%; pest or weed control at 50 µg/cm2 [2]: 50 to 100%
O=C(CNC(=O)c1ccc(/C=C/C(c2ccc(F)c(C(F)(F)F)c2)C(F)(F)F)cc1Br)NCC(F)(F)F (stereo not drawn) [P1483] | A (50-100) | A (50-100) | –
O=C(CNC(=O)c1ccc(/C=C/C(c2cc(Cl)c(Cl)c(Cl)c2)C(F)(F)F)cc1C(F)(F)F)NCC(F)(F)F (stereo not drawn) [P1556] | A (50-100) | A (50-100) | –
CC(NC(=O)c1ccc(/C=C/C(c2cc(Cl)c(Cl)c(Cl)c2)C(F)(F)F)cc1C(F)(F)F)C(=O)NCCC(F)(F)F (stereo not drawn) [P1633A] | A (50-100) | A (50-100) | –
O=C(CNC(=O)c1ccc(/C=C/C(c2ccc(Cl)c(Cl)c2)C(F)(F)F)cc1)NCC(F)(F)F (stereo not drawn) [P1781] | A (50-100) | A (50-100) | –
C[C@@H](NC(=O)c1ccc(/C=C/C(c2cccc(OC(F)(F)F)c2)C(F)(F)F)cc1Br)C(=O)NCC(F)(F)F (stereo partly drawn) [P226] | A (50-100) | A (50-100) | –
C[C@@H](NC(=O)c1ccc(/C=C/C(c2ccc(F)c(C#N)c2)C(F)(F)F)cc1Br)C(=O)NCC(F)(F)F (stereo partly drawn) [P802] | A (50-100) | A (50-100) | –
O=C(NCC(=S)NCC(F)(F)F)c1ccc(/C=C/C(c2cc(Cl)c(Cl)c(Cl)c2)C(F)(F)F)cc1Cl (stereo not drawn) [P1558] | A (50-100) | A (50-100) | –
C[C@@H](NC(=O)c1ccc(/C=C/C(c2ccc(Cl)c([N+](=O)[O-])c2)C(F)(F)F)cc1C(F)(F)F)C(=O)NCC(F)(F)F (stereo partly drawn) [P732] | A (50-100) | A (50-100) | –
C[C@@H](NC(=O)c1ccc(/C=C/C(c2ccc(F)c(F)c2F)C(F)(F)F)cc1Br)C(=O)NCC(F)(F)F (stereo partly drawn) [P82] | A (50-100) | A (50-100) | –
CC(C)[C@@H](NC(=O)c1ccc(/C=C/C(c2cc(Cl)c(Cl)c(Cl)c2)C(F)(F)F)cc1Br)C(=O)NCC(F)(F)F (stereo partly drawn) [FA32] | – | – | pest or weed control at 50 µg/cm2 [1]: 50 to 100%; pest or weed control at 50 µg/cm2 [2]: 50 to 100%
O=C(CNC(=O)c1cc(O)c(/C=C/C(c2cc(Cl)c(Cl)c(Cl)c2)C(F)(F)F)cc1Cl)NCC(F)(F)F (stereo not drawn) [FA4] | – | – | pest or weed control at 50 µg/cm2 [1]: 50 to 100%; pest or weed control at 50 µg/cm2 [2]: 50 to 100%
C[C@@H](NC(=O)c1ccc(/C=C/C(c2ccc(F)c(F)c2F)C(F)(F)F)cc1C(F)(F)F)C(=O)NCC(F)(F)F (stereo partly drawn) [P84] | A (50-100) | A (50-100) | –
CC(NC(=O)CNC(=O)c1ccc(/C=C/C(c2cc(Cl)c(Cl)c(Cl)c2)C(F)(F)F)cc1C(F)(F)F)C(F)(F)F (stereo not drawn) [P1591] | A (50-100) | A (50-100) | –
Cc1cc(C(/C=C/c2ccc(C(=O)N[C@H](C)C(=O)NCC(F)(F)F)c(Br)c2)C(F)(F)F)cc(C)c1F (stereo partly drawn) [P514] | A (50-100) | A (50-100) | –
CCNC(=O)[C@@H](C)NC(=O)c1ccc(/C=C/C(c2cc(Cl)c(Cl)c(Cl)c2)C(F)(F)F)cc1C(F)(F)F (stereo partly drawn) [P1623] | A (50-100) | A (50-100) | –
C[C@@H](NC(=O)c1ccc(/C=C/C(c2cc(Cl)c(Cl)c(Cl)c2)C(F)(F)F)cc1)C(=O)NCC(F)(F)F (stereo partly drawn) [P1603] | A (50-100) | A (50-100) | –
C[C@@H](NC(=O)c1ccc(/C=C/C(c2cc(F)cc(Br)c2)C(F)(F)F)cc1C(F)(F)F)C(=O)NCC(F)(F)F (stereo partly drawn) [P300] | A (50-100) | A (50-100) | –
Cc1cc(C(/C=C/c2ccc(C(=O)N[C@H](C)C(=O)NCC(F)(F)F)c(Br)c2)C(F)(F)F)ccc1F (stereo partly drawn) [P1090] | A (50-100) | A (50-100) | –
Cc1cc(/C=C/C(c2cc(Cl)c(Cl)c(Cl)c2)C(F)(F)F)ccc1C(=O)NCC(=O)NC(C)C(F)(F)F (stereo not drawn) [P1592] | A (50-100) | A (50-100) | –
O=C(CNC(=O)c1ccc(/C=C/C(c2ccc(Cl)c(Cl)c2)C(F)(F)F)cc1Br)NCC(F)(F)F (stereo not drawn) [P1776] | A (50-100) | A (50-100) | –

Compound | BAW Rating [1, 3] | CL Rating [2] | also measured
Cc1cc(/C=C/C(c2cc(Cl)c(Cl)c(Cl)c2)C(F)(F)F)cc(C)c1C(=O)N[C@H](C)C(=O)NCC(F)(F)F (stereo partly drawn) [FA28] | – | – | pest or weed control at 50 µg/cm2 [1]: 50 to 100%; pest or weed control at 50 µg/cm2 [2]: 50 to 100%
C[C@@H](NC(=O)c1ccc(/C=C/C(c2ccc(Br)c(Br)c2)C(F)(F)F)cc1C(F)(F)F)C(=O)NCC(F)(F)F (stereo partly drawn) [P660] | A (50-100) | A (50-100) | –
CC(NC(=O)CNC(=O)c1ccc(/C=C/C(c2cc(Br)cc(Br)c2)C(F)(F)F)cc1C(F)(F)F)C(F)(F)F (stereo not drawn) [P2011] | A (50-100) | A (50-100) | –
O=C(NC1CCN(C2COC2)CC1)c1ccc(/C=C/C(c2cc(Cl)c(Cl)c(Cl)c2)C(F)(F)F)cc1Br (stereo not drawn) [AC108, (E)-2-Bromo-N-(1-(oxetan-3-yl)piperidin-4-yl)-4-(4,4,4-trifluoro-3-(3,4,5-trichlorophenyl)but-1-en-1-yl)benzamide] | – | – | BAW Rating ([1]; Table 3, beet armyworm): B (More than 0-Less than 50)
C[C@@H](NC(=O)c1ccc(/C=C/C(c2cc(Br)cc(Br)c2)C(F)(F)F)cc1Br)C(=O)NCCC(F)(F)F (stereo partly drawn) [P2056] | A (50-100) | A (50-100) | –
C[C@@H](NC(=O)c1ccc(/C=C/C(c2cc(Cl)c(Cl)cc2Cl)C(F)(F)F)cc1Br)C(=O)NCC(F)(F)F (stereo partly drawn) [P156] | A (50-100) | A (50-100) | –
Cc1ccc(C(/C=C/c2ccc(C(=O)N[C@H](C)C(=O)NCC(F)(F)F)c(C(F)(F)F)c2)C(F)(F)F)cc1Cl (stereo partly drawn) [P444] | A (50-100) | A (50-100) | –
O=C(CNC(=O)c1ccc(/C=C/C(c2cc(Br)cc(Br)c2)C(F)(F)F)cc1Cl)NCC(F)(F)F (stereo not drawn) [P1970] | A (50-100) | A (50-100) | –
N#Cc1c(F)cc(C(/C=C/c2ccc(C(=O)NCC(=O)NCC(F)(F)F)c(Br)c2)C(F)(F)F)cc1F (stereo not drawn) [P2] | – | A (50-100) | –
CC(C)(NC(=O)c1ccc(/C=C/C(c2cc(Cl)c(Cl)c(Cl)c2)C(F)(F)F)cc1Br)C(=O)NCC#N (stereo not drawn) [FA14] | – | – | pest or weed control at 50 µg/cm2 [1]: 50 to 100%; pest or weed control at 50 µg/cm2 [2]: 50 to 100%
CCNC(=O)NCc1ccc(/C=C/C(c2cc(Cl)cc(Cl)c2)C(F)(F)F)cc1Cl (stereo not drawn) [CC31, (E)-1-(2-Chloro-4-(3-(3,5-dichlorophenyl)-4,4,4-trifluorobut-1-en-1-yl)benzyl)-3-ethylurea] | – | – | BAW Rating ([1]; Table 3, beet armyworm): B (More than 0-Less than 50)
C[C@@H](NC(=O)c1ccc(/C=C/C(c2cc(Cl)cc(Cl)c2)C(F)(F)F)cc1C(F)(F)F)C(=O)NCC(F)(F)F (stereo partly drawn) [P1698] | A (50-100) | A (50-100) | –
Cc1cc(/C=C/C(c2cc(Cl)c(Cl)c(Cl)c2)C(F)(F)F)ccc1C(=S)NCC(=S)NCC(F)(F)F (stereo not drawn) [P15] | A (50-100) | A (50-100) | –
CS(=O)(=O)c1cc(/C=C/C(c2cc(Cl)c(F)c(Cl)c2)C(F)(F)F)ccc1C(=O)NCC(=O)NCC(F)(F)F (stereo not drawn) [FA34] | – | – | pest or weed control at 50 µg/cm2 [2]: 50 to 100%
O=C(CCNC(=O)c1ccc(/C=C/C(c2cc(Cl)c(Cl)c(Cl)c2)C(F)(F)F)cc1C(F)(F)F)NCC(F)(F)F (stereo not drawn) [P1640] | – | A (50-100) | –
O=C(NCc1ccc(/C=C/C(c2cc(Cl)c(Cl)c(Cl)c2)C(F)(F)F)cc1C(F)(F)F)c1cccnc1 (stereo not drawn) [CC23] | – | – | BAW Rating ([1]; Table 3, beet armyworm): A (50-100)
O=C(CNC(=O)c1ccc(/C=C/C(c2cc(Cl)c(O)c(Cl)c2)C(F)(F)F)cc1Br)NCC(F)(F)F (stereo not drawn) [FA13] | – | – | pest or weed control at 50 µg/cm2 [2]: 50 to 100%
O=C(NCCc1ccc(Cl)nc1)c1ccc(/C=C/C(c2cc(Cl)c(Cl)c(Cl)c2)C(F)(F)F)cc1Br (stereo not drawn) [AC113] | – | – | BAW Rating ([1]; Table 3, beet armyworm): B (More than 0-Less than 50)
C[C@@H](NC(=O)c1ccc(/C=C/C(c2cc(F)cc(Br)c2)C(F)(F)F)cc1Br)C(=O)NCC(F)(F)F (stereo partly drawn) [P298] | – | A (50-100) | –
N#CCN1CCC(NC(=O)c2ccc(/C=C/C(c3cc(Cl)c(Cl)c(Cl)c3)C(F)(F)F)cc2Br)CC1 (stereo not drawn) [AC107] | – | – | BAW Rating ([1]; Table 3, beet armyworm): B (More than 0-Less than 50)
FC(F)(F)C(/C=C/c1ccc(-n2cncn2)cc1)c1ccccc1 (stereo not drawn) [DC3] | – | – | BAW Rating ([1]; Table 3, beet armyworm): B (More than 0-Less than 50)
O=C(NCC(=S)NCC(F)(F)F)c1ccc(/C=C/C(c2cc(Cl)c(Cl)c(Cl)c2)C(F)(F)F)cc1Br (stereo not drawn) [AC92, (E)-2-Bromo-N-(2-thioxo-2-((2,2,2-trifluoroethyl)amino)ethyl)-4-(4,4,4-trifluoro-3-(3,4,5-trichlorophenyl)but-1-en-1-yl)benzamide] | – | – | BAW Rating ([1]; Table 3, beet armyworm): A (50-100)
